Assay results taken from US20140106387A1, “METHOD FOR CONTROLLING NAD(P)/NAD(P)H RATIO BY OXIDOREDUCTASE” (MD BIOALPHA CO., LTD., priority 2006, published 2014).

How the values were obtained:
cardiomyocytes [1] = assay: mitochondrial oxygen consumption in cardiomyocytes; format: cell-based
Source text: FIG. 22 is a graph showing monitoring results of mitochondrial oxygen consumption using a Clark-type oxygen electrode;

MN9D cells = assay: intracellular ATP concentration in dopaminergic neuronal cells; format: cell-based; settings: 5 μM
Protocol: Dopaminergic (MN9D) and non-dopaminergic (MN9X) neuronal cells were treated with 5 μM pyran-1,2-naphthoquinone and the ATP concentration was periodically measured.

cardiomyocytes [2] = assay: mitochondrial membrane potential (TMRE fluorescence) in cardiomyocytes; format: cell-based
Protocol: For determination of the inner mitochondrial membrane potential (ΔΨm), 20 nM of TMRE (tetramethylrhodamine ethyl ester) as a fluorescent indicator was continuously applied to be loaded on cells. In order to monitor mitochondrial Ca^2+, cells on glass coverslips were loaded with 10 μM Rhod-2 AM via cold loading/warm incubation. In order to monitor cytosolic Ca^2+, cells were co-loaded with 10 μM Fluo-4 AM at 37′C for 30 min. The cells were washed twice with a KB solution, and mounted in a perfusion chamber. Fluorescent imaging was taken using a confocal laser scanning microscope (LSM-510 META, Carl Zeiss) at a magnification of ×200 and ×400, in conjunction with appropriate laser lines and a filter set. Image analysis was carried out using LSM-510 META software (Zeiss). Images for TMRE (red fluorescence), Rhod-2 (red fluorescence) and Fluo-4 (green fluorescence) were obtained using an inverted Zeiss 510META laser-scanning confocal microscope equipped with ×63 numerical aperture, 1.4 oil-immersion planapochromat lens. Green fluorescence and red fluorescence were illuminated with light of 488 nm and 543 nm. Incident light was passed through a 545 nm dichroic mirror and observed via a 500 to 530 nm band-pass (green) filter and a 560 nm long-pass (red) barrier filter.
However, such effects were not observed in HEK293 cells. […]

HEK293 cells = assay: intracellular ATP, ADP and AMP levels by LC-MS in HEK293; format: cell-based, human; settings: HEK293 cells having no NQO1 activity, 2 hours
Protocol: (§1) Samples were analyzed using an Agilent 1100 series LC/MSD system equipped with G1322A degasser, G1312A binary pump, G1315A photo-diode-array detector, 59987A electrospray interface and 5989B mass spectrometer. ES-MS analysis was performed using an Agilent 5989 electrospray (ES) mass spectrometer (MS) with an Agilent Atmospheric Pressure Ionization (API) interface fitted with a hexapole ion guide. Chromatogram was automatically integrated with the aid of Chemstation software, and concentrations were determined using a standard calibration curve.
(§2) Acid extraction was used for analysis of an AOPN concentration in the cells and liver tissues. 400 μl of 6% HClO4 was added to the cells cultured in a 100 mm dish, whereas a two-fold volume of 6% HClO4 was added to the liver tissues which were then immediately homogenized. Each mixture was centrifuged at 14,000 g and 4° C. for 10 min, and the resulting supernatants were neutralized by addition of 1 M borate buffer (pH 11) containing 4 mM EDTA in an amount of 75%. Samples were aliquoted and stored at a temperature of −80° C.
(§3) A mobile phase was 100 mM ammonium acetate:MeOH (98:2, v/v), and preparations were filtered through a 0.22-μm Millipore filter. A flow rate was set to 0.8 mL/min and detection was made at 254 nm. Separation was carried out using a ZORBAX Bonus-RP C18 column (3.5 μm, 4.6×150 mm I.D., Waters, USA). […]

[3] = glucose tolerance and insulin sensitivity in OLETF rats; format: in vivo, rat; settings: Days 3 and 21 after treatment
Protocol: Glucose tolerance test (GTT) was carried out for 12 h-fasted mice by a known method. As described above, 12 h-fasted mice received an insulin stimulation test
FIG. 45 is a graph showing glucose tolerance and insulin sensitivity measured in vehicle-treated ° LEIF rats and βL-treated OLETF rats. Glucose and insulin were i.p. and i.v. injected, respectively, and the blood glucose level was measured.

HepG2 cells = assay: intracellular ATP, ADP and AMP levels by LC-MS in HepG2; format: cell-based, human; settings: HepG2, 10 μM, 2 hours
Protocol: as §1, §2, §3

ACC, CPT, HAD = assay: enzyme assays, malonyl-CoA content and fatty acid oxidation in DIO mice; format: in vivo, mouse
Protocol: For Enzyme assays, cytoplasm was extracted from mouse tissues. Dicoumarol-sensitive NQO1 activity was determined by a conventional method known in the art: This method is based on an absorbance decrease at 600 nm due to bioreduction of DCPIP. Total AMPK activity was determined with a known method using synthetic “SAMS” peptides and [γ-^32P] ATP. ACC activity was determined by quantifying fixation of ^14CO2 to the acid-stable product in the presence/absence of citrate (2 mM) as an allosteric activator of ACC. CPT (carnitine palmitoyl transferase) activity was measured in L6 myoblasts and soleus muscle by a known method. HAD (3-hydroxyacyl-CoA dehydrogenase) activity was determined in L6 myoblasts and soleus muscle by monitoring conversion of acetoacetyl-CoA into L-3-hydroxybutyryl CoA and the concomitant oxidation of NADH into NAD^+. The reaction was monitored at 340 nm by a known method.
[^14C]palmitoyl-CoA (Perkin Elmer) oxidation was determined in L6 myoblasts and soleus muscle by a known method using labeled CO2 and 0.2 mL of benzethonium chloride solution.
Contents of Malonyl-CoA were determined by a known method, e.g. HPLC. Acyl-CoA esters were separated by HPLC using 0.2 M ammonium acetate-containing acetonitrile/water (1.75:98.25). Samples were washed with 20 min, and subjected to 100 min linear gradient elution from acetonitrile/water (10:90) containing 0.2 M ammonium acetate.
That is, such facts mean that chronic treatment of βL can accelerate mitochondrial oxidative phosphorylation and enhance adaptive mitochondrial biogenesis. Therefore, βL can be used as a therapeutic agent for metabolic diseases.

[4] = muscle of DIO mice vs control group

SMILES: CC1(C)CCC2=C(O1)c1ccccc1C(=O)C2=O [βL, 2,2-Dimethyl-3,4-dihydro-2H-benzo[h]chromene-5,6-dione]
- mitochondrial oxygen consumption (cardiomyocytes [1]): increased
- intracellular ATP concentration (MN9D cells): decreased
- decrease of TMRE fluorescence (cardiomyocytes [2]): about 20%
- intracellular ATP level (HEK293 cells): no significant changes in the intracellular ATP level
- glucose tolerance and insulin sensitivity [3]: improvements in glucose tolerance and insulin sensitivity
- time at which ATP amount was minimum and AMP amount maximum (HepG2 cells): 30 min
- 14C-palmitoyl CoA β-oxidation (ACC, CPT, HAD; [4]): significantly increased
- CPT activity (ACC, CPT, HAD; [4]): significantly increased
- HAD activity (ACC, CPT, HAD; [4]): significantly increased
- ACC activity (ACC, CPT, HAD; βL-treated DIO mice): decreased
- malonyl CoA level (ACC, CPT, HAD; βL-treated DIO mice): decreased
